Measurements reported in patent US20260193245A1, “CD93 INHIBITORS” (UNIVERSITÄT BERN, priority 2022, published 2026).

How the values were obtained:
[1] = system: human CML leukemia stem cells; settings: Riether et al. 2021; cited from earlier work
[2] = system: BL6 leukemia stem cells; settings: murine CML model, BL6 and CD93-/- mice; Riether et al. 2021; cited from earlier work
[3] = molecular target: T1, CD93 (Mus musculus, UniProt O89103); assay: Mouse MLL-AF9 compound screening: colony forming capacity of BL6 or CD93-/- GMPs (leukemia stem cells) from AML mice; format: cell-based; settings: GMPs from AML mice cultured overnight with 10 uM and 1 uM compound; colonies counted after 7 days; FIG. 1 and FIG. 2
T1 construct: endogenous in cells; host or cells: FACS-purified GFP+ lin- Sca-1- c-kit(high) CD34+ Fcγ+ GMPs from MLL-AF9 AML mice (BL6; CD93-/- cells as control)
T1 sequence (O89103 23-644): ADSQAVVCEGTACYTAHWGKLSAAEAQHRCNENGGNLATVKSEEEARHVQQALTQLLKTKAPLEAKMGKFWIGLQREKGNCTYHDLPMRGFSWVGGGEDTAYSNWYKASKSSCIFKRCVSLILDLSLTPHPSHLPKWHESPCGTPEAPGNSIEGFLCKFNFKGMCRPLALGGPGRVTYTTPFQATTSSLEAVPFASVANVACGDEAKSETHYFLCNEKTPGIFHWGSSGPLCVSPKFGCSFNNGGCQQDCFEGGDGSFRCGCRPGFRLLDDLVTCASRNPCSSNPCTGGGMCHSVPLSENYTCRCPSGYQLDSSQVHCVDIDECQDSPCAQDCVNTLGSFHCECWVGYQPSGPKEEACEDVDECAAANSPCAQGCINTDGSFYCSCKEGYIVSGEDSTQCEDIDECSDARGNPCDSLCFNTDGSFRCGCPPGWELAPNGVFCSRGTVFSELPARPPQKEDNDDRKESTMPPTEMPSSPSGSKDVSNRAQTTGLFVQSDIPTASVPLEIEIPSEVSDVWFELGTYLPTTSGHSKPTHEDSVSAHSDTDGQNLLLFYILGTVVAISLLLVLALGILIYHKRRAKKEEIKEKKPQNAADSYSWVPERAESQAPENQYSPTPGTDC
Method: The colony formation (% of control) is shown on the Y-axis. […] Compounds showing inhibition of CD93, show no or a very low difference in colony formation of CD93−/− and at the same time a low percentage of colony formation of BL6.
For testing the small molecule compounds targeting CD93 on GMPs (leukemia stem cells) colony forming capacity, 10^3 FACS-purified GFP+lin-Sca-1-c-kithighCD34+Fcγ+ GMPs from BL6 or CD93−/− transduced AML mice were cultured overnight in 96-well U-bottom plates (NeoLab) in RPMI medium supplemented with 10% FCS, 1% L-glutamine, 1% penicillin/streptomycin, 100 ng/ml recombinant mouse (rm)-SCF (Miltenyi) and 20 ng/ml rm-TPO (ProSpec), in the presence or absence of 10 uM and 1 uM compound in technical triplicates. Compounds were dissolved in DMSO. The next day, cells were plated in semi-solid methylcellulose in the absence of any compound. Number of colonies was assessed by inverted light microscopy after 7 days.
In this assay, the semi-solid Media used was 1.27% Methylcellulose (1500cp, Sigma), supplemented with 15% FCS, 20% BIT (50 mg/ml BSA in IMDM, 1.44 U/ml rh-insulin [Actrapid; Novo Nordisk], and 250 ng/ml human holo transferrin [Prospec]), 100 μM 2-mercaptoethanol, 100 U/ml penicillin, 100 μg/ml streptomycin, 2 mM L-glutamine, and 50 ng/ml rm-SCF (Miltneyi), 10 ng/ml rm-IL-3 (Miltenyi), 10 ng/ml rm-IL-6 (Miltenyi), and 50 ng/ml rm-Flt3-ligand (ProSpec).

inhibition profile of CD93 (colony formation, % of control, BL6 vs CD93-/- GMPs) [3] | SMILES | leukemia stem cell numbers and function [1] | colony formation of BL6 leukemia stem cells [2]
 | CCN(CC)CCNC(=O)c1cc(Cl)c(N)cc1OC [metoclopramide] | diminished leukemia stem cell numbers and function | reduced colony formation of BL6 leukemia stem cells
good inhibition profiles of CD93 | O=C(c1csc(-c2ccccc2)n1)N1CCN2CCC1C2 (centres unmarked) [Compound 22817] |  | 
good inhibition profiles of CD93 | CN(C)CCN(C)C(=O)c1csc(-c2ccccc2)n1 [Compound 22815] |  | 
good inhibition profiles of CD93 | O=C(c1csc(-c2ccccc2)n1)N1CCCN(C2CC2)CC1 [Compound 21560] |  | 
good inhibition profiles of CD93 | O=C(c1nc2ccccc2s1)N1CCCN(C2CC2)CC1 [Compound 22393] |  | 
good inhibition profiles of CD93 | O=C(c1ccn(-c2ccccc2)n1)N1CCCN(C2CC2)CC1 [Compound 22742] |  | 
good inhibition profiles of CD93 | COc1ccccc1-c1nc(C(=O)N2CCCN(C3CC3)CC2)cs1 [Compound 22394] |  | 
